Test results taken from patent publication US20140200175A1, “SUPPRESSION OF TOXIN PRODUCTION OF C[…]” (University of Central Florida Research Foundation, Inc., priority 2012, published 2014).
Entries after “also recorded” stand apart in the source; their conditions may differ.

Experiments:
tcdB = details: 16.7 mM, mRNA harvested after 72 hours of growth
C. difficile (VPI10463) [1] = assay: Growth curve of C. difficile in rich medium (TYGSe), optical density at 600 nm; type: cell-based, Clostridium difficile; details: VPI10463, rich medium plus 16.7 mM amino acid, 72 hour growth period
[2] = system: C. difficile (VPI10463) toxin A and toxin B; assay: Extracellular toxin in cell free supernatants by SDS-PAGE with GelCode Blue staining; type: cell-based, Clostridium difficile; details: 16.7 mM; for toxin levels in media supernatants (band larger than 225 kDa): 72 hour growth period, 7.5% gel, versus control
Experimental: FIG. 2 illustrates that toxin production occurs earlier and is increased with the addition of L-proline or glycine to the culture media of C. difficile, but is diminished with L-hydroxyproline. C. difficile (VPI10463) culture media was collected by centrifugation at the indicated time points. Cell free supernatants were filtered (0.2 μm filter) and equal volumes (50 μL) were separated by SDS-PAGE and stained overnight with GelCode Blue. Gel migration was compared with that of purified toxin A (List Biologicals).
For analysis of extracellular toxins, 50 μL aliquots of cell free supernatant from each C. difficile culture across a 72 hour growth study was analyzed by sodium dodecyl sulfate-polyacrylamide gel electrophoresis (SDS-PAGE) (7.5% polyacrylamide). The separated proteins were visualized after staining overnight with GelCode Blue (Thermo Scientific, Waltham, Mass.).

tcdA = details: 16.7 mM, mRNA harvested after 72 hours of growth
C. difficile spore = details: alongside taurocholate, reference (45); cited from earlier work
C. difficile (VPI10463) [3] = details: stationary phase (24 to 72 hours), 16.7 mM; versus control and the other amino acids
Experimental: Optical density (FIG. 1A) was followed for 72 hours after inoculation. Total protein (FIG. 1B) and extracellular protein (FIG. 1C) were quantified in cell free supernatants according to the method described by Bradford (46).
Optical density measurements of cultures at 600 nm were determined using a Molecular Devices SpectraMax 190 96-well plate reader at the times indicated for each experiment. Cultures were centrifuged at 16,100×g for five minutes. The resulting cell free supernatants were filtered (0.2 μm) and assayed for protein as described by Bradford (46) using bovine serum albumin (Thermo Scientific, Rockford, Ill.) as a standard.

C. difficile = details: added to the culture medium, concentration-dependent, reference (32); cited from earlier work

Compound	reduction in tcdB transcription (tcdB; relative to control cells)	growth (in words) (C. difficile (VPI10463) [1])	toxin levels in media supernatants (band larger than 225 kDa) [2]	reduction in tcdA transcription (tcdA; relative to control cells)	spore germination (C. difficile spore)	extracellular protein levels (C. difficile (VPI10463) [3])	tcdB transcript relative to control cells (tcdB)	toxin produced earlier ([2]; onset of toxin band)	tcdA transcript relative to control cells (tcdA)	intracellular toxin levels (C. difficile)
O=C(O)[C@@H]1CC(O)CN1 (stereo partly drawn) [L-hydroxyproline, L-4-hydroxyproline]	≥ 75%	largest increase in growth; also recorded: comparable growth	no band corresponding to toxin was visible	≥ 75%	–	–	–	–	–	–
NCC(=O)O [glycine]	–	–	higher toxin levels than the control	–	potent spore co-germinant	significantly higher	nine	approximately 24 hours	nine	–
N[C@@H](CS)C(=O)O [L-cysteine]	–	–	–	–	–	–	–	–	–	significantly reduced
O=C(O)[C@@H]1CCCN1 [L-proline]	–	–	higher toxin levels than the control	–	–	–	approximately three	–	approximately three	significantly reduced
